Measurements as given in PMC3849095, “Trans-chalcone and quercetin down-regulate fatty acid synthase gene expression and reduce ergosterol content in the human pathogenic dermatophyte Trichophyton rubrum” (BMC Complementary and Alternative Medicine, 2013).
Where two headings read alike, the source gives them in different places.

Biological target: T1, Fatty acid synthase (FAS) (Saccharomyces cerevisiae, UniProt P07149+P19097)
T1 construct: gene FAS1; with FAS2 (alpha subunit of the yeast FAS complex)
Test: FAS activity (absorbance at […] nm, malonyl CoA/acetyl CoA/NADPH) in ammonium sulfate-precipitated yeast protein extract
Type: biochemical

T1 sequence (P19097 whole entry): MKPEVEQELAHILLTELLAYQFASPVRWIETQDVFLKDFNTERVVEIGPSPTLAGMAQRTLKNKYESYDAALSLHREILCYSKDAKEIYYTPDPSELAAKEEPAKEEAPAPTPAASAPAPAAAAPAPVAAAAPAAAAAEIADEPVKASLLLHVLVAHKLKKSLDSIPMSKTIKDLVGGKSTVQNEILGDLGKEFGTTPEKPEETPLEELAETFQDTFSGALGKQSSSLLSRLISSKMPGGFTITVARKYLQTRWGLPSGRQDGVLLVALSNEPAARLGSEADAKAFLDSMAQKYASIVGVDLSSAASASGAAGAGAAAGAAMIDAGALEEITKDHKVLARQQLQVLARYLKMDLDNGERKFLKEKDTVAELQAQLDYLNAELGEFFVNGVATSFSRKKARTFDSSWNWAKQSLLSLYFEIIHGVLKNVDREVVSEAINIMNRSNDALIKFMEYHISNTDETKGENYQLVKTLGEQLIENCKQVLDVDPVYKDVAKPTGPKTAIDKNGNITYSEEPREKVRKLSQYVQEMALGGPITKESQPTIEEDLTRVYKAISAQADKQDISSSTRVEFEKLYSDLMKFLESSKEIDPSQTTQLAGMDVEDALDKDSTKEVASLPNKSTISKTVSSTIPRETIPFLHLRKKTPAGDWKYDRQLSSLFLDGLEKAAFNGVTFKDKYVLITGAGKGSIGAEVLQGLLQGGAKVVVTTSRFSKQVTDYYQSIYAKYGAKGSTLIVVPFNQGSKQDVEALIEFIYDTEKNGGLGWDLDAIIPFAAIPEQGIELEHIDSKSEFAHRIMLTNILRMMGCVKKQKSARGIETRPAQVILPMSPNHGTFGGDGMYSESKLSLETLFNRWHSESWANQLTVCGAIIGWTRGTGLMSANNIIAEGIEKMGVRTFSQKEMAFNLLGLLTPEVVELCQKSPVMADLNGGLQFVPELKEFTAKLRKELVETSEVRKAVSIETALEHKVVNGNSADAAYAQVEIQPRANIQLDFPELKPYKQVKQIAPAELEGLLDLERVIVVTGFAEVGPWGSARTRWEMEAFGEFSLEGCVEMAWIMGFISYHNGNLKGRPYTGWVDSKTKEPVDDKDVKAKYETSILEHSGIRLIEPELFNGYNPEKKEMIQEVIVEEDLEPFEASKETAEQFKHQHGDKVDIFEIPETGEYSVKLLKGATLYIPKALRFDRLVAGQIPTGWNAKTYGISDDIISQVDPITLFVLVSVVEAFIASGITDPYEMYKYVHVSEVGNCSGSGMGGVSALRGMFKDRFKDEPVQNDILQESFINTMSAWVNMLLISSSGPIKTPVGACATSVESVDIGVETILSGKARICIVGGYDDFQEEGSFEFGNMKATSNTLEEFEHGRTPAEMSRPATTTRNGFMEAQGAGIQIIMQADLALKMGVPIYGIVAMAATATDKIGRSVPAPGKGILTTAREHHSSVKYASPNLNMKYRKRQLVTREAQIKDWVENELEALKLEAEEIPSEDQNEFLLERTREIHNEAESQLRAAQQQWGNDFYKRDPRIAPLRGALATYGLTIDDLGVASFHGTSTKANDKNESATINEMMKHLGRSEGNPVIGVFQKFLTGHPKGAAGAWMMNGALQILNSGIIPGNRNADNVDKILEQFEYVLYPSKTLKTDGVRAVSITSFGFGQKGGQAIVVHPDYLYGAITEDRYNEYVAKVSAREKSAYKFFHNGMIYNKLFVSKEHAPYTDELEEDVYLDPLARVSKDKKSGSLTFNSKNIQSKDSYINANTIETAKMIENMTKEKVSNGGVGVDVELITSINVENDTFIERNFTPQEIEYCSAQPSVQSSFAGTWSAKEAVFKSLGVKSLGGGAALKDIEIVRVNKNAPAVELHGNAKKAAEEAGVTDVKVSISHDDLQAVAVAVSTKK
T1 sequence (P07149 whole entry): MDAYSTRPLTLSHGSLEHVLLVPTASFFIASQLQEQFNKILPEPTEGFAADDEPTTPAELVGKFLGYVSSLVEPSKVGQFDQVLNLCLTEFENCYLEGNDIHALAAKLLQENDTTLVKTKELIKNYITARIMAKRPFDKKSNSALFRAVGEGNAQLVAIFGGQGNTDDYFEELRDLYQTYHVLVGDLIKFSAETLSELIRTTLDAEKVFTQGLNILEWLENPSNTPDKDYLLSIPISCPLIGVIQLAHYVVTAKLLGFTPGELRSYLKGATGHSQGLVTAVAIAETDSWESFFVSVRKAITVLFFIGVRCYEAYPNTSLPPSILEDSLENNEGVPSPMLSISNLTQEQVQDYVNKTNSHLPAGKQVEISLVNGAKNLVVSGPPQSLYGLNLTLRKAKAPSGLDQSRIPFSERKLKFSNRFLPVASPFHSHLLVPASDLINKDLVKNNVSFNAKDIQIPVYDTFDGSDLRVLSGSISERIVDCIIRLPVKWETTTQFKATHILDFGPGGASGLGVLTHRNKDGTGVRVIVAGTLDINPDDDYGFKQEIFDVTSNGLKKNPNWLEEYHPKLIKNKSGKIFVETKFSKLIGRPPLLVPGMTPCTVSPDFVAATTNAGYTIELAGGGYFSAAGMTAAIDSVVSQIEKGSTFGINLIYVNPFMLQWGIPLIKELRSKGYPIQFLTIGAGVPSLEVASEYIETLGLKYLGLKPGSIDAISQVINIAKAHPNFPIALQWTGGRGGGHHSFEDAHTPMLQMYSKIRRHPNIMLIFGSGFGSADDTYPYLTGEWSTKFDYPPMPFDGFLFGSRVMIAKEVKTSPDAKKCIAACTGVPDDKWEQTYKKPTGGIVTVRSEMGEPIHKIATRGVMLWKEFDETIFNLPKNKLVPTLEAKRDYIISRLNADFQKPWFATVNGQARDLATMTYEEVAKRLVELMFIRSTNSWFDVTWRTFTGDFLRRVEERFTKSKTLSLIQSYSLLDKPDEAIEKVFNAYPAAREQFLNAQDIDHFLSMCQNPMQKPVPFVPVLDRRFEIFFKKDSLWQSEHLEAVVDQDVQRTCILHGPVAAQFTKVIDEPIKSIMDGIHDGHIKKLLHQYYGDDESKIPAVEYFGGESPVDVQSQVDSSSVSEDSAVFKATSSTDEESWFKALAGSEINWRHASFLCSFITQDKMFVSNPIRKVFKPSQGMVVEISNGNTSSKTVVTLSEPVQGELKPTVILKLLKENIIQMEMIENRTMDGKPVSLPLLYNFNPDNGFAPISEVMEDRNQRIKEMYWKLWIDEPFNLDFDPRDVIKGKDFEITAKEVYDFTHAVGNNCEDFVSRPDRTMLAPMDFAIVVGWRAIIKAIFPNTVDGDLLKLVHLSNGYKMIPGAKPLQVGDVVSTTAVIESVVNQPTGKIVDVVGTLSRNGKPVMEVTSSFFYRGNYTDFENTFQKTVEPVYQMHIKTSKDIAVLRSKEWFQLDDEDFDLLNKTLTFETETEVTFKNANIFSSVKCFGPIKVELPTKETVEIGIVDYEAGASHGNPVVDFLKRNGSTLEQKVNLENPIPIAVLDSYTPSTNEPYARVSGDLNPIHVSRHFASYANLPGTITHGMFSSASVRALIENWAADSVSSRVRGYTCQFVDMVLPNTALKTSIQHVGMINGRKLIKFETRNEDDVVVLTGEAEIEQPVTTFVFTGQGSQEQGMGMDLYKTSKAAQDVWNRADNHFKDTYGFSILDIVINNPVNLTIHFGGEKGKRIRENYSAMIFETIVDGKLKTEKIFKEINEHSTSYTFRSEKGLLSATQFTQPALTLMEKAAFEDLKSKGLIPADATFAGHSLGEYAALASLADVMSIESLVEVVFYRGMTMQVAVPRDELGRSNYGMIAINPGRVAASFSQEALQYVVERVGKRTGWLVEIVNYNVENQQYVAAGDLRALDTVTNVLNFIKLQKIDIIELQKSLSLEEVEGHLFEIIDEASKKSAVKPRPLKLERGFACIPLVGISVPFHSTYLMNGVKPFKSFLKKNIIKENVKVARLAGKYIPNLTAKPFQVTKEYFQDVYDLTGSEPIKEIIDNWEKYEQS

Row | Structure (SMILES) | IC50 (read-out: IC50 (μg/mL) (converted)) [µM] | IC50 (read-out: IC50 (converted)) [µM]
1 | O=c1c(O)c(-c2ccc(O)c(O)c2)oc2cc(O)cc(O)c12 [QCT, Quercetin] | 56.6 | 
2 | O=C(/C=C/c1ccccc1)c1ccccc1 [T-CHL, Trans-chalcone] |  | 328
